Among the test systems are BT-549; DLD-1; DMS-273; XF498; SNB-78; HOP-18; LXFL 529; DMS-114.
Holding throughout (experiment): NCI-60 cell line screen, 48 h

“And” between values parts separate entries of the source, which are not always exact repeats. Equal values may be shown once.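 96-well plates; 48 h exposure; 5 concentrations. Endpoints by linear interpolation between flanking doses. Not reached: highest tested concentration assigned. Here, GI50 denotes the concentration required for 50% inhibition of growth.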 The source made the active and inactive calls. Cut-off read from the data, not from the text of the source: active = GI50 up to about 1.1 µM and inactive = higher. Where only a bound is given, the exact number is not on record here.

Consider `CN(CC(=O)O)Cc1c[nH]c2ccccc12`, for which, in the test with BT-549, the GI50 was > 100 µM (inactive).
Turning to `CC1=NN(C(=O)CC(=O)Nc2cccc(Cl)c2)C(=O)C1/N=N/c1ccc(S(N)(=O)=O)cc1` (stereo not drawn), the GI50 in the test on DLD-1, in the test on DMS-273, with XF498, in the test with SNB-78, in the test on HOP-18 and in the test on LXFL 529 was > 100 µM (inactive) in each case. Besides, the GI50 with DMS-114 was > 100 µM (inactive).
In the case of `CC(=O)c1c(SCCN2CCOCC2)n(-c2ccccc2)c(=S)n(-c2ccccc2)c1=O`, in the test on BT-549, the GI50 is 21.1 µM (inactive).
As for `COC(=O)CCCCC/C(=C\C(=O)C(Cl)(Cl)Cl)OC`, the GI50 in the test on BT-549 was 38.9 µM (inactive).
Turning to `CC(C)c1ccc(/C=C2/C=C(c3ccc4ccccc4c3)OC2=O)cc1`, the GI50 in the test with BT-549 is 33.3 µM (inactive).
Turning to `CCN(CC)CCCn1cnc2ncccc2c1=O`, the GI50 in the test on DLD-1, in the test on DMS-273, in the test with SNB-78, in the test on LXFL 529 and in the test with DMS-114 was > 100 µM (inactive) throughout.
With `C/C(=N/OCCC(=O)O)C1CC1`, the GI50 in the test with DLD-1, in the test with DMS-273, with XF498, in the test with SNB-78, in the test with HOP-18 and with LXFL 529 was > 100 µM (inactive) throughout. The GI50 with DMS-114 is > 100 µM (inactive).
For the molecule `O=C(c1ccccc1)c1nnn(Cc2ccccc2Cn2nnc(C(=O)c3ccccc3)c2C(=O)c2ccccc2)c1C(=O)c1ccccc1`, the GI50 is > 100 µM (inactive) in the test on DLD-1; > 100 µM (inactive) in the test with DMS-273; > 100 µM (inactive) with SNB-78; > 100 µM (inactive) in the test on HOP-18; > 100 µM (inactive) with LXFL 529; 81.1 µM (inactive) with DMS-114.
With `O=c1c(Nc2ccccc2)cn(CCOc2ccccc2)c(=O)n1CCOc1ccccc1`, the GI50 in the test on BT-549 is 20.8 µM (inactive).
For `CC(C)=CCSC1CC2C(CC1(C)O)C2(C)C` (stereo not drawn), the GI50 in the test with DLD-1 was 17.3 µM (inactive) and 13.8 µM (inactive); in the test on DMS-273, 15.8 µM (inactive) and 9.98 µM (inactive); in the test on XF498 it was 4.84 µM (inactive) and 4.62 µM (inactive); with SNB-78, 23.4 µM (inactive) and 12 µM (inactive); with LXFL 529, 17.3 µM (inactive) and 14 µM (inactive); in the test with DMS-114, 15.6 µM (inactive) and 10.1 µM (inactive).
Regarding `Cc1cc(=O)[nH]c(-n2[nH]c3c(c2=O)CCCC3)n1`, the GI50 with BT-549 is > 100 µM (inactive).
The same measure, in the same setting: as for `Nc1cccc(/C=C/CN2CCN(CCOC(c3ccccc3)c3ccccc3)CC2)c1`, the figure is 16.1 µM (inactive); as for `O=[N+]([O-])c1cccc([N+](=O)[O-])c1S(=O)(=O)c1ccccc1`, 3.08 µM (inactive); as for `Cc1ncc(CO)c(CN)c1O`, > 100 µM (inactive).
Take `Cc1ccc(-c2cc(=S)n(-c3ccccc3)c3[nH]c(=S)n(-c4ccccc4)c(=N)c23)cc1`: the GI50 in the test on DLD-1, in the test with DMS-273, in the test with LXFL 529 and in the test on DMS-114 was > 100 µM (inactive) in each case.
With `COc1cc2c(cc1OC)C(SC)C(=O)N(Cc1cccc(OC)c1OC)CC2` (stereo not drawn), the GI50 with DLD-1 was 2.01 µM (inactive); with DMS-273, 0.553 µM (active); in the test with SNB-78 it was 0.359 µM (active); in the test on HOP-18, 1.49 µM (inactive); in the test on BT-549, 0.755 µM (active); with LXFL 529 it was 2.84 µM (inactive). The GI50 in the test on DMS-114 was 0.621 µM (active).
Turning to `Nc1nc(Cl)c(N)c(NCC2(CO)CC(O)C2)n1` (stereo not drawn), the GI50 with BT-549 was > 100 µM (inactive).
`CSc1nnc(SC)nn1`: the GI50 in the test with BT-549 is 16 µM (inactive).
`O=c1c2ncn(C3CCCCO3)c2n(-c2ccccc2)c(=S)n1-c1ccccc1` (stereo not drawn): the GI50 in the test on BT-549 was 23 µM (inactive).
For the molecule `Cc1cc(C)n(CN(Cn2nc(C)cc2C)c2ccc(N(Cn3nc(C)cc3C)Cn3nc(C)cc3C)cc2)n1`, the GI50 with BT-549 is 19.2 µM (inactive).
Take `Cn1/c(=N\S(=O)(=O)c2ccccc2)[nH]c2ccccc21`: in the test with BT-549, the GI50 is > 100 µM (inactive).
As for `O=C(O)c1ccc(C(O)(c2ccccc2)c2ccccc2)cc1`, in the test with BT-549, the GI50 was > 100 µM (inactive).
Turning to `CC1(CF)SCc2nc3ccccc3n21` (stereo not drawn), the GI50 in the test with BT-549 is > 100 µM (inactive).
For the molecule `COc1cc(/C=C2\C(=O)N(C(=O)c3ccc(NC(C)=O)cc3)N=C2C)ccc1O`, the GI50 in the test on DLD-1, with DMS-273, with SNB-78, with HOP-18 and in the test with DMS-114 was > 100 µM (inactive) each time.
As for `CCCCCCCCCCCCNC(C)=O`, the GI50 in the test on BT-549 was 13.7 µM (inactive).
The same measure, in the same setting: as for `Cc1ccc(S[C@@H](C)[C@@](O)(C(N)=O)c2ccccc2)cc1`, the figure is 30.1 µM (inactive).
Turning to `CCc1ccccc1NC(=O)C1=C(C)NC(C)=C(C(=O)Nc2ccccc2CC)C1c1ccc(NC(C)=O)cc1`, the GI50 in the test with DLD-1 was 26.5 µM (inactive); in the test with SNB-78 it was 33.3 µM (inactive); with LXFL 529, 33 µM (inactive); in the test with DMS-114, 28.1 µM (inactive).
Take `OCC1C(/C=C/c2ccoc2)ON2CCCC12` (stereo not drawn): the GI50 in the test with DLD-1 is > 100 µM (inactive); with DMS-273, > 100 µM (inactive); in the test with XF498 it was > 100 µM (inactive); in the test with SNB-78 it was > 100 µM (inactive); in the test with HOP-18, 0.279 µM (active); in the test with LXFL 529 it was > 100 µM (inactive).
On to `Cc1cccc(C)c1NC(=O)C1C(=O)N(c2c(C)cccc2C)C(=O)/C1=N\NC(N)=S` (stereo not drawn), for which the GI50 is > 100 µM (inactive) in the test on DLD-1; > 100 µM (inactive) with SNB-78; 17.3 µM (inactive) in the test on HOP-18; > 100 µM (inactive) with LXFL 529; 36.1 µM (inactive) with DMS-114.
With `C1=N/CCNCCNCC/N=C/c2ccccc2OCc2cccc(n2)COc2ccccc2/1`, the GI50 with BT-549 was 38.5 µM (inactive).
Regarding `CSc1nc(SC)c2c(CO)c(Br)n(Cc3ccccc3)c2n1`, the GI50 in the test on BT-549 is 21.6 µM (inactive).
Take `CC(C)(CO)CNc1nc(N)nc(Cl)c1C=O`: the GI50 in the test on BT-549 was 41.1 µM (inactive).
Same read-out and setting: as for `[O-]c1c[n+](CCCC[n+]2cc([O-])on2)no1`, the figure is > 100 µM (inactive).
Same read-out and setting: as for `O=C1c2cccc3cccc(c23)C2NCCCN12` (stereo not drawn), the figure is > 100 µM (inactive); as for `COC(=O)/C=C\C(C#N)(C#N)/N=C/c1ccc(C)s1`, 2.83 µM (inactive); as for `Cc1cc2c(c(O)c1-c1c(C)cc(O)c3c1C(=O)C=CC3=O)C(=O)C=CC2=O`, 2.61 µM (inactive).
`CSC1=C(C#N)C(=O)N(c2ccc(C)cc2)C(=O)C1C#N` (stereo not drawn): in the test with BT-549, the GI50 is > 100 µM (inactive).
Consider `COc1ccc(Cn2c(=O)c(OC)c(C)c3cc4ccccc4cc32)cc1`, for which, in the test with BT-549, the GI50 is 34.3 µM (inactive).
As for `CC(C)(Oc1ccc(/C=C/C(=O)c2ccccc2)cc1)C(=O)Nc1c(Cl)cccc1Cl`, the GI50 in the test on DLD-1 was > 10 µM (inactive); in the test with DMS-273 it was 8.07 µM (inactive); in the test with XF498 it was > 10 µM (inactive); with SNB-78 it was > 10 µM (inactive); in the test with HOP-18 it was > 10 µM (inactive); with LXFL 529, 6.56 µM (inactive). In addition, in the test with DMS-114, the GI50 was 8.47 µM (inactive).
Turning to `Cc1nc(Nc2ccc(Cl)cc2)sc1C(=O)NNC(=O)C(=O)NN`, the GI50 in the test on DLD-1 is 18.5 µM (inactive); in the test with DMS-273 it was 19.1 µM (inactive); in the test on SNB-78, 26.9 µM (inactive); with HOP-18 it was 16.2 µM (inactive); in the test with LXFL 529 it was 18.3 µM (inactive); with DMS-114, 20.4 µM (inactive).
As for `Cc1c2c(n(CC(c3ccccc3)c3ccccc3)c1C)NN=C(C#N)S2(=O)=O`, the GI50 in the test on BT-549 was > 100 µM (inactive).
With `Cc1c(C(=O)/C=C/c2ccc(N(C)C)cc2)c(=O)n(-c2ccccc2)n1C`, the GI50 in the test with DMS-273, in the test on XF498, in the test on SNB-78, with LXFL 529 and in the test on DMS-114 was > 100 µM (inactive) throughout.
`COC(=O)c1ccccc1CC1Cc2ccc3c(c2C1)CCC3` (stereo not drawn): the GI50 in the test on BT-549 is 60.8 µM (inactive).
`CCOP(=O)(OCC)C(Nc1cccc(F)c1)c1ccc(N(C)C)cc1` (stereo not drawn): the GI50 in the test with BT-549 is > 100 µM (inactive).
Regarding `CCCC(CC)c1cc(O)c(O)cc1C(CC)CCC` (stereo not drawn), in the test with BT-549, the GI50 is > 10 µM (inactive).
Turning to `OC[C@]1(n2nc3ccccc3n2)OC[C@@H]1c1ccccc1`, in the test with BT-549, the GI50 was 28.8 µM (inactive).
For the molecule `CCNC(=O)Nc1ccccn1`, in the test on BT-549, the GI50 is > 100 µM (inactive).
Take `Nc1cc(C(=O)NC2C3CC4CC(C3)CC2C4)nc(S)n1` (stereo not drawn): the GI50 in the test on DLD-1, in the test on XF498, in the test with SNB-78 and in the test with LXFL 529 was > 100 µM (inactive) each time.
Take `COC(=O)C12OC3CO[Si](C(C)C)(C(C)C)O[Si](C(C)C)(C(C)C)OC3C1Oc1nc(=O)ccn12` (stereo not drawn): the GI50 in the test on BT-549 is 18.2 µM (inactive).
As for `CCOC(=O)c1cc(C2=CCNC2=O)c(-c2cc(C)no2)[nH]1`, in the test with BT-549, the GI50 was > 100 µM (inactive).
Turning to `O=S(=O)(O)c1ccc(/N=N/c2ccc(/N=N/c3c(O)ccc4cc(S(=O)(=O)O)ccc34)cc2)cc1`, the GI50 with BT-549 was > 100 µM (inactive).
With `COC1=C2CC(C)CC(OC)[C@@H](OC(=O)CCN)[C@H](C)/C=C(\C)C(OC(N)=O)C(OC)/C=C\C=C(/C)C(=O)NC(=CC1=O)C2=O` (stereo partly drawn), the GI50 in the test on BT-549 is 4.91 µM (inactive).
In the case of `CCC1CN2CCc3c([nH]c4ccccc34)[C@@](C(=O)OC)(c3cc4c(cc3OC)N(C)C3C(O)(C(=O)OC)C(C(=O)OC)C5(CC)C=CCN6CCC43C65)C[C@@H](C2)[C@@H]1C(C)(C)C` (stereo partly drawn), the GI50 in the test with BT-549 is 1.61 µM (inactive).
Consider `CC(=O)Nc1ccc(S(=O)(=O)Nc2nnc(S(N)(=O)=O)s2)cc1`, for which the GI50 in the test on BT-549 was > 100 µM (inactive).
On to `COC(=O)c1cc(C(=CCC[C@H]2CC[C@@]3(C)C(CCC4C3CC[C@@]3(C)C4CC[C@@H]3C(C)CCCC(C)C)C2)c2cc(Cl)c(O)c(C(=O)OC)c2)cc(Cl)c1O` (stereo partly drawn), for which the GI50 with BT-549 was > 10 µM (inactive).
Take `Oc1ccc(-c2nc3ccccc3s2)cc1`: in the test on BT-549, the GI50 was 50.2 µM (inactive).
For the molecule `COc1ccc([C@@]23Oc4cc(OC)cc(OC)c4[C@]2(O)[C@H](O)[C@H](C(N)=O)[C@H]3c2ccccc2)cc1` [DIDESMETHYLROCAGLAMIDE], the GI50 in the test on BT-549 is < 0.0112 µM (active).
Turning to `NC1=NC(=O)/C(=C2\CCNC(=O)c3[nH]c(Br)cc32)N1` [HYMENIALDISINE], the GI50 in the test on DLD-1 was 37.6 µM (inactive); in the test with DMS-273, > 85.5 µM (inactive); with XF498 it was > 100 µM (inactive); with SNB-78, 86.3 µM (inactive); with HOP-18 it was > 45.1 µM (inactive); in the test on BT-549, 10.4 µM (inactive). Also, the GI50 with DMS-114 was 13 µM (inactive).

(Values after ChEMBL document CHEMBL1201862, “PubChem BioAssay data set” (2004).)
